“And” between values parts separate entries of the source, which are not always exact repeats. Identical values can stand only once.
Legend:
Experiment in all cases: Caliper, Mobility shift assay off-chip
BLK (human) = BLK (human) (UniProt P51451)
BTK (human) = BTK (human) (UniProt Q06187)
CDC42BPA (human) = CDC42BPA (human) (UniProt Q5VT25)
CSNK2A2 (human) = CSNK2A2 (human) (UniProt P19784)
DYRK3 (human) = DYRK3 (human) (UniProt O43781)
EPHA5 (human) = EPHA5 (human) (UniProt P54756)
EPHB1 (human) = EPHB1 (human) (UniProt P54762)
FGFR2 (human) = FGFR2 (human) (UniProt P21802)
FGFR4 (human) = FGFR4 (human) (UniProt P22455)
GSG2 (human) = GSG2 (human) (UniProt Q8TF76)
HIPK2 (human) = HIPK2 (human) (UniProt Q9H2X6)
HIPK4 (human) = HIPK4 (human) (UniProt Q8NE63)
MAPK12 (human) = MAPK12 (human) (UniProt P53778)
MAPK7 (human) = MAPK7 (human) (UniProt Q13164)
MAPK8 (human) = MAPK8 (human) (UniProt P45983)
MAPK9 (human) = MAPK9 (human) (UniProt P45984)
MAPKAPK5 (human) = MAPKAPK5 (human) (UniProt Q8IW41)
MARK3 (human) = MARK3 (human) (UniProt P27448)
MKNK1 (human) = MKNK1 (human) (UniProt Q9BUB5)
NEK6 (human) = NEK6 (human) (UniProt Q9HC98)
NTRK2 (human) = NTRK2 (human) (UniProt Q16620)
PDK4 (human) = PDK4 (human) (UniProt Q16654)
PRKCA (human) = PRKCA (human) (UniProt P17252)
PRKCB1 (human) = PRKCB1 (human) (UniProt P05771)
PRKD3 (human) = PRKD3 (human) (UniProt O94806)
PRKX (human) = PRKX (human) (UniProt P51817)
PTK2B (human) = PTK2B (human) (UniProt Q14289)
PTK6 (human) = PTK6 (human) (UniProt Q13882)
SGK3 (human) = SGK3 (human) (UniProt Q96BR1)
SPHK2 (human) = SPHK2 (human) (UniProt Q9NRA0)
STK38L (human) = STK38L (human) (UniProt Q9Y2H1)
TEC (human) = TEC (human) (UniProt P42680)
TSSK3 (human) = TSSK3 (human) (UniProt Q96PN8)
YES1 (human) = YES1 (human) (UniProt P07947)

Sequence of HIPK2 (human) (Q9H2X6 whole entry, looked up): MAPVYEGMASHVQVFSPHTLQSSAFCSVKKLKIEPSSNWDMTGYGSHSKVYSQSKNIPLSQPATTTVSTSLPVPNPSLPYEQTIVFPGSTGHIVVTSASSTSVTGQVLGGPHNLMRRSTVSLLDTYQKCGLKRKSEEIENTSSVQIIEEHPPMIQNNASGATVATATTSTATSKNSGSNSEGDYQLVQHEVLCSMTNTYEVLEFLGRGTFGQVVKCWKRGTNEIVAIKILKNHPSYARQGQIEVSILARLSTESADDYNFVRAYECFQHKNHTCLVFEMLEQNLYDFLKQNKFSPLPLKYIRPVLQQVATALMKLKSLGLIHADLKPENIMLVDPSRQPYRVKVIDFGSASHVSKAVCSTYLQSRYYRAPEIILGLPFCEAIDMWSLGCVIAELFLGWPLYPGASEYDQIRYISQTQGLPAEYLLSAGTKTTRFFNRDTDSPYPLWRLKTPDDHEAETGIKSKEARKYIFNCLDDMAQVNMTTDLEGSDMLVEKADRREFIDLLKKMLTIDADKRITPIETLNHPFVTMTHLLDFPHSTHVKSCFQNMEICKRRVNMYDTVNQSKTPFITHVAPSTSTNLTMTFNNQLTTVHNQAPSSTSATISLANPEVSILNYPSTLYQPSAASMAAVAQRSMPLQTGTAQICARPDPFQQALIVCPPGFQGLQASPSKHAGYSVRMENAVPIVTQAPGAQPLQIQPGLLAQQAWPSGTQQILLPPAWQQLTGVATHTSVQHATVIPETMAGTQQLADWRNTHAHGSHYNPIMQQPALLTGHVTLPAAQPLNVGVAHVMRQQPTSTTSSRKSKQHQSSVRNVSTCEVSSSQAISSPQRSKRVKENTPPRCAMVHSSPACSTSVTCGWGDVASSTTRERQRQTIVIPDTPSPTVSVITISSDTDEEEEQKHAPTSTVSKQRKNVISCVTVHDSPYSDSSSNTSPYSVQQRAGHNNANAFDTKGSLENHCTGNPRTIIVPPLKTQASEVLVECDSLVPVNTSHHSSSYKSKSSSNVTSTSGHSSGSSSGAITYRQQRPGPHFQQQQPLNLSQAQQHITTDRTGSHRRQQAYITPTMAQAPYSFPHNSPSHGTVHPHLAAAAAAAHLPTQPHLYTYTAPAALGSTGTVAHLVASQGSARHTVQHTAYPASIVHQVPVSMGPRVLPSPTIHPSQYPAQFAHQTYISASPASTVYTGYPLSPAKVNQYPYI
Sequence of NEK6 (human) (Q9HC98 whole entry, looked up): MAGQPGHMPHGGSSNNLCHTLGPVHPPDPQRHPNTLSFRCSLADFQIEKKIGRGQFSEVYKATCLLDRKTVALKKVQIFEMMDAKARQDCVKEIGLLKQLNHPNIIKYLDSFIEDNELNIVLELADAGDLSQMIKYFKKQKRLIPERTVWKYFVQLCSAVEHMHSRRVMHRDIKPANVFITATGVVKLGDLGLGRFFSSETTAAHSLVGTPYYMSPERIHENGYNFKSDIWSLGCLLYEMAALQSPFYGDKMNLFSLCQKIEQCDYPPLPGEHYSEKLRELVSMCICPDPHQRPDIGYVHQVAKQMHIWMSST
Sequence of HIPK4 (human) (Q8NE63 whole entry, looked up): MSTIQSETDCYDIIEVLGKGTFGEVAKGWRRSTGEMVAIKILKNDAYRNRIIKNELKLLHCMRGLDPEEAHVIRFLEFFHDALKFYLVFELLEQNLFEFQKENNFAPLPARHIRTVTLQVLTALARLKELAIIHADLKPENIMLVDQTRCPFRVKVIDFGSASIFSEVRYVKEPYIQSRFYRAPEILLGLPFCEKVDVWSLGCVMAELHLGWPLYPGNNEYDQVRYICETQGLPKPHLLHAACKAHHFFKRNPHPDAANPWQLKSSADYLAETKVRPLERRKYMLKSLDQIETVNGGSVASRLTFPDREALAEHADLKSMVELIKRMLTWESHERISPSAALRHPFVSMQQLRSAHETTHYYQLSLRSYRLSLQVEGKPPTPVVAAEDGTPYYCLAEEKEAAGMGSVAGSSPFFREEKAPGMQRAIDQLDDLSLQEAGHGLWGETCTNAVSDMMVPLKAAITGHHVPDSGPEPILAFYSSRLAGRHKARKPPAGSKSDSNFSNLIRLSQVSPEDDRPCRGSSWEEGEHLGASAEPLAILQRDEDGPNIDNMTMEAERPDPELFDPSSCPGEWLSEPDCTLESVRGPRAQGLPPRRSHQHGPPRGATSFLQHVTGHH
Sequence of SGK3 (human) (Q96BR1 whole entry, looked up): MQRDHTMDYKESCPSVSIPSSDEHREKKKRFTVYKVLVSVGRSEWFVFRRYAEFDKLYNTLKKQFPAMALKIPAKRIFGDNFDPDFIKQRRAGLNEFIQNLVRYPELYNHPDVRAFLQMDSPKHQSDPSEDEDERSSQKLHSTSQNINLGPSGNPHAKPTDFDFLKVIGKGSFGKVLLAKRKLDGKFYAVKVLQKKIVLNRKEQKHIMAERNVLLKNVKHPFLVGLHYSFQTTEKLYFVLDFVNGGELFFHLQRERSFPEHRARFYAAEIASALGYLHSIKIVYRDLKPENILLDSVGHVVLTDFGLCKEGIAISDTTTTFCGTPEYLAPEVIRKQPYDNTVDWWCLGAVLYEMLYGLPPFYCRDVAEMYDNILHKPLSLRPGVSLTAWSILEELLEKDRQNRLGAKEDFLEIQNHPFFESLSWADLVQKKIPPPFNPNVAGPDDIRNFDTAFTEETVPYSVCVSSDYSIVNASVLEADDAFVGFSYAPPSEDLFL
Sequence of MAPK12 (human) (P53778 whole entry, looked up): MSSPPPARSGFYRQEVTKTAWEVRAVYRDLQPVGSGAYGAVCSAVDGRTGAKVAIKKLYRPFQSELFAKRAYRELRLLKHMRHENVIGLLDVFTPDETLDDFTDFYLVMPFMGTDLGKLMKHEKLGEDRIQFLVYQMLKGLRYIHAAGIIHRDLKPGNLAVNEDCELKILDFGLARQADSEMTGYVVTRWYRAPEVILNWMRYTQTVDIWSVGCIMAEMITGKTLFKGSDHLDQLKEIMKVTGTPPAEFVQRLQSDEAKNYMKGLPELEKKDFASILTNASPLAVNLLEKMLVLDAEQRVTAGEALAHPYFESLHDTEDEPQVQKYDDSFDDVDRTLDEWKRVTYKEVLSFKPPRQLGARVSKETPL
Sequence of SPHK2 (human) (Q9NRA0 whole entry, looked up): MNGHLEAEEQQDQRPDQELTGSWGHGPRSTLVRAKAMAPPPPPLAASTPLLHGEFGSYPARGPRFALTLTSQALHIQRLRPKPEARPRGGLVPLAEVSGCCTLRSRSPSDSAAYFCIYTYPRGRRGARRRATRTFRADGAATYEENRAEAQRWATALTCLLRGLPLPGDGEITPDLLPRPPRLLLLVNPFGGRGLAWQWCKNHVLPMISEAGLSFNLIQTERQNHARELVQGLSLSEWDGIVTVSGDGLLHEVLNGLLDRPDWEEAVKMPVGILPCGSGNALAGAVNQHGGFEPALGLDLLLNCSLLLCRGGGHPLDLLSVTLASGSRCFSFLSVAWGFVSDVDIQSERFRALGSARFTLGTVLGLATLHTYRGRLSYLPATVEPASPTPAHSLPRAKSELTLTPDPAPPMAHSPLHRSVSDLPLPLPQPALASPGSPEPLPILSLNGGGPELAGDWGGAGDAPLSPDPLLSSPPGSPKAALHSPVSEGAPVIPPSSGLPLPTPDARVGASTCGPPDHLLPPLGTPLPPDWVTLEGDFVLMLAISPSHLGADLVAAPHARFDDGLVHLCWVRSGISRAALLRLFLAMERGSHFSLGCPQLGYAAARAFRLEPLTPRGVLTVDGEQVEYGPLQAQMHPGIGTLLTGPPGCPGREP
Sequence of TSSK3 (human) (Q96PN8 whole entry, looked up): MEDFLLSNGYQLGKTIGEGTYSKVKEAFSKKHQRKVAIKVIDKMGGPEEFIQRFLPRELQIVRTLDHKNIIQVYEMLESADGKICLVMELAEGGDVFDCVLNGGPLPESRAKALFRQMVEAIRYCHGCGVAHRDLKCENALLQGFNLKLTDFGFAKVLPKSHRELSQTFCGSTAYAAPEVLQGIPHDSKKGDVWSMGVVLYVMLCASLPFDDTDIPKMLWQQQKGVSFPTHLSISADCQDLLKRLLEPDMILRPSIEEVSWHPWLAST
Sequence of PTK6 (human) (Q13882 whole entry, looked up): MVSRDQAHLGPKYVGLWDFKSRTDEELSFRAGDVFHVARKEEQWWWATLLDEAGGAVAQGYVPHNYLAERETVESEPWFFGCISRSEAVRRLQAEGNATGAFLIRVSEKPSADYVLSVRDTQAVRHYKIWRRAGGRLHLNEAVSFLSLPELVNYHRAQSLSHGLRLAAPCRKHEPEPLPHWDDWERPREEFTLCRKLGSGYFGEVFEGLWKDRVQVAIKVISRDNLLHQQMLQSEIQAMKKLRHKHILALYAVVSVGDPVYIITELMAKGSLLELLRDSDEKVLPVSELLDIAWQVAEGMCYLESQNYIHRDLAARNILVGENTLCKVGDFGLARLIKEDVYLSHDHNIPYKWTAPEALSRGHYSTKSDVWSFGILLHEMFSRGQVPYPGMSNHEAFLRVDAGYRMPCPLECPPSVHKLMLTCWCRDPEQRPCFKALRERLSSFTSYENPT
Sequence of TEC (human) (P42680 whole entry, looked up): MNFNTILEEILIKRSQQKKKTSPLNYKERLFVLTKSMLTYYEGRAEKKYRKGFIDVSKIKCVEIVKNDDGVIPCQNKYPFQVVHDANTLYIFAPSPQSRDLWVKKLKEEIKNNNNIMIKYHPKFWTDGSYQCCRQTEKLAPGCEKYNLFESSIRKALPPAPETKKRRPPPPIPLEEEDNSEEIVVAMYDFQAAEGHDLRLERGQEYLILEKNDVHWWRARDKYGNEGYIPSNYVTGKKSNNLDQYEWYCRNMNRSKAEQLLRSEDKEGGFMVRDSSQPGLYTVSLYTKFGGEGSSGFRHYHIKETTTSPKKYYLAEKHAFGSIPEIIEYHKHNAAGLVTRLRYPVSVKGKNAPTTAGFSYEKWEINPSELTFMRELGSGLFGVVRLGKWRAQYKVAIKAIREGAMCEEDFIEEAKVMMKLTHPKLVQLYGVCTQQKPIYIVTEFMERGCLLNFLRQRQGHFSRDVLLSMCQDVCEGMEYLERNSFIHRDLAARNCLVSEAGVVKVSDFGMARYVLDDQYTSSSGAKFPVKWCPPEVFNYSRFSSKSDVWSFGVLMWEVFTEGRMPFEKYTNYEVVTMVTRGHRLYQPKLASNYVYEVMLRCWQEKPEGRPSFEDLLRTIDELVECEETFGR

## CCN(CC)CCNC(=O)c1c(C)[nH]c(/C=C2\C(=O)Nc3ccc(F)cc32)c1C
BLK (human); compound 0.2 µM
  inhibition: 79.2%
BLK (human); compound 4.0 µM
  inhibition: 101%
BTK (human); compound 0.2 µM
  inhibition: 2.7%
BTK (human); compound 4.0 µM
  inhibition: 51.2%
CDC42BPA (human); compound 0.2 µM
  inhibition: 5.5%
CDC42BPA (human); compound 4.0 µM
  inhibition: -26.5%
CSNK2A2 (human); compound 0.2 µM
  inhibition: 4.5%
CSNK2A2 (human); compound 4.0 µM
  inhibition: 41.2%
DYRK3 (human); compound 0.2 µM
  inhibition: 24.4%
DYRK3 (human); compound 4.0 µM
  inhibition: 81.9%
EPHA5 (human); compound 0.2 µM
  inhibition: 6.7%
EPHA5 (human); compound 4.0 µM
  inhibition: 50.8%
EPHB1 (human); compound 0.2 µM
  inhibition: 34.5%
EPHB1 (human); compound 4.0 µM
  inhibition: 89%
FGFR2 (human); compound 0.2 µM
  inhibition: 71.3%
FGFR2 (human); compound 4.0 µM
  inhibition: 99.7%
FGFR4 (human); compound 0.2 µM
  inhibition: 10.3%
FGFR4 (human); compound 4.0 µM
  inhibition: 62.6%
GSG2 (human); compound 0.2 µM
  inhibition: 39.2%
GSG2 (human); compound 4.0 µM
  inhibition: 89.7%
HIPK2 (human); compound 0.2 µM
  inhibition: 74.2%
HIPK2 (human); compound 4.0 µM
  inhibition: 99.3%
HIPK4 (human); compound 0.2 µM
  inhibition: 67.4%
HIPK4 (human); compound 4.0 µM
  inhibition: 96.8%
MAPK12 (human); compound 0.2 µM
  inhibition: -4.2%
MAPK12 (human); compound 4.0 µM
  inhibition: -6.2%
MAPK7 (human); compound 0.2 µM
  inhibition: -5.7%
MAPK7 (human); compound 4.0 µM
  inhibition: 28.8%
MAPK8 (human); compound 0.2 µM
  inhibition: -3.9%
MAPK8 (human); compound 4.0 µM
  inhibition: -16%
MAPK9 (human); compound 0.2 µM
  inhibition: -8.7%
MAPK9 (human); compound 4.0 µM
  inhibition: -15.7%
MAPKAPK5 (human); compound 0.2 µM
  inhibition: 6%
MAPKAPK5 (human); compound 4.0 µM
  inhibition: 45.2%
MARK3 (human); compound 0.2 µM
  inhibition: 77.4%
MARK3 (human); compound 4.0 µM
  inhibition: 99%
MKNK1 (human); compound 0.2 µM
  inhibition: 7.4%
MKNK1 (human); compound 4.0 µM
  inhibition: 30.3%
NEK6 (human); compound 0.2 µM
  inhibition: -1.5%
NEK6 (human); compound 4.0 µM
  inhibition: -6.8%
NTRK2 (human); compound 0.2 µM
  inhibition: 85.7%
NTRK2 (human); compound 4.0 µM
  inhibition: 101%
PDK4 (human); compound 0.2 µM
  inhibition: 1.6%
PDK4 (human); compound 4.0 µM
  inhibition: 22.6%
PRKCA (human); compound 0.2 µM
  inhibition: 0.1%
PRKCA (human); compound 4.0 µM
  inhibition: 28.7%
PRKCB1 (human); compound 0.2 µM
  inhibition: 0% and -1.3%
PRKCB1 (human); compound 4.0 µM
  inhibition: 20% and 27.2%
PRKD3 (human); compound 0.2 µM
  inhibition: 63.7%
PRKD3 (human); compound 4.0 µM
  inhibition: 97.5%
PRKX (human); compound 0.2 µM
  inhibition: 7.7%
PRKX (human); compound 4.0 µM
  inhibition: 66.3%
PTK2B (human); compound 0.2 µM
  inhibition: 72.4%
PTK2B (human); compound 4.0 µM
  inhibition: 101%
PTK6 (human); compound 0.2 µM
  inhibition: 17.6%
PTK6 (human); compound 4.0 µM
  inhibition: 82.3%
SGK3 (human); compound 4.0 µM
  inhibition: 20.6%
SPHK2 (human); compound 0.2 µM
  inhibition: -6.9%
SPHK2 (human); compound 4.0 µM
  inhibition: 4.7%
STK38L (human); compound 0.2 µM
  inhibition: 6.1%
STK38L (human); compound 4.0 µM
  inhibition: 32.7%
TEC (human); compound 0.2 µM
  inhibition: 7.6%
TEC (human); compound 4.0 µM
  inhibition: 31.6%
TSSK3 (human); compound 0.2 µM
  inhibition: 2.6%
TSSK3 (human); compound 4.0 µM
  inhibition: -1.3%
YES1 (human); compound 0.2 µM
  inhibition: 96.9%
YES1 (human); compound 4.0 µM
  inhibition: 101%

## CNC(=O)c1ccccc1Sc1ccc2c(/C=C/c3ccccn3)n[nH]c2c1
BLK (human); compound 0.001 µM
  inhibition: 0.4%
BLK (human); compound 0.02 µM
  inhibition: -1.6%
CDC42BPA (human); compound 0.001 µM
  inhibition: 4.2%
CDC42BPA (human); compound 0.02 µM
  inhibition: 10.2%
CSNK2A2 (human); compound 0.001 µM
  inhibition: -3.1%
CSNK2A2 (human); compound 0.02 µM
  inhibition: -5.6%
DYRK3 (human); compound 0.001 µM
  inhibition: -18.5%
DYRK3 (human); compound 0.02 µM
  inhibition: -6.4%
EPHA5 (human); compound 0.001 µM
  inhibition: -5.3%
EPHA5 (human); compound 0.02 µM
  inhibition: -3.9%
EPHB1 (human); compound 0.001 µM
  inhibition: -9.1%
EPHB1 (human); compound 0.02 µM
  inhibition: -6.5%
FGFR2 (human); compound 0.001 µM
  inhibition: 10.6%
FGFR2 (human); compound 0.02 µM
  inhibition: 54.1%
FGFR4 (human); compound 0.001 µM
  inhibition: 0%
FGFR4 (human); compound 0.02 µM
  inhibition: -3.4%
GSG2 (human); compound 0.001 µM
  inhibition: -2.8%
GSG2 (human); compound 0.02 µM
  inhibition: -0.9%
HIPK2 (human); compound 0.001 µM
  inhibition: -4.6%
HIPK2 (human); compound 0.02 µM
  inhibition: -0.1%
HIPK4 (human); compound 0.001 µM
  inhibition: -3.1%
HIPK4 (human); compound 0.02 µM
  inhibition: 1.9%
MAPK12 (human); compound 0.001 µM
  inhibition: -3.7%
MAPK12 (human); compound 0.02 µM
  inhibition: -4.6%
MAPK7 (human); compound 0.001 µM
  inhibition: -9.5%
MAPK7 (human); compound 0.02 µM
  inhibition: -9.5%
MAPK8 (human); compound 0.001 µM
  inhibition: -3.3%
MAPK8 (human); compound 0.02 µM
  inhibition: -3.5%
MAPK9 (human); compound 0.001 µM
  inhibition: -9.7%
MAPK9 (human); compound 0.02 µM
  inhibition: -9.3%
MAPKAPK5 (human); compound 0.001 µM
  inhibition: -1.5%
MAPKAPK5 (human); compound 0.02 µM
  inhibition: 1.6%
MARK3 (human); compound 0.001 µM
  inhibition: -1%
MKNK1 (human); compound 0.001 µM
  inhibition: -6.1%
MKNK1 (human); compound 0.02 µM
  inhibition: 4.1%
NEK6 (human); compound 0.001 µM
  inhibition: -7.6%
NEK6 (human); compound 0.02 µM
  inhibition: -5.8%
NTRK2 (human); compound 0.001 µM
  inhibition: 5.8%
NTRK2 (human); compound 0.02 µM
  inhibition: 10.5%
PDK4 (human); compound 0.001 µM
  inhibition: 0.1%
PDK4 (human); compound 0.02 µM
  inhibition: -0.5%
PRKCA (human); compound 0.001 µM
  inhibition: 15.9%
PRKCA (human); compound 0.02 µM
  inhibition: 0.7%
PRKCB1 (human); compound 0.001 µM
  inhibition: 4% and 4.9%
PRKD3 (human); compound 0.001 µM
  inhibition: -4.3%
PRKD3 (human); compound 0.02 µM
  inhibition: -1.6%
PRKX (human); compound 0.001 µM
  inhibition: 0.1%
PRKX (human); compound 0.02 µM
  inhibition: -1.7%
PTK2B (human); compound 0.001 µM
  inhibition: -4.6%
PTK2B (human); compound 0.02 µM
  inhibition: -1.4%
PTK6 (human); compound 0.001 µM
  inhibition: -6%
PTK6 (human); compound 0.02 µM
  inhibition: -4.8%
SGK3 (human); compound 0.001 µM
  inhibition: 13.9%
SGK3 (human); compound 0.02 µM
  inhibition: 0.8%
SPHK2 (human); compound 0.001 µM
  inhibition: 2.8%
SPHK2 (human); compound 0.02 µM
  inhibition: -4.8%
STK38L (human); compound 0.001 µM
  inhibition: 8.1%
STK38L (human); compound 0.02 µM
  inhibition: -0.1%
TEC (human); compound 0.001 µM
  inhibition: 3.2%
TEC (human); compound 0.02 µM
  inhibition: -3.2%
TSSK3 (human); compound 0.001 µM
  inhibition: -1.6%
TSSK3 (human); compound 0.02 µM
  inhibition: 0%
YES1 (human); compound 0.001 µM
  inhibition: 5.9%
